Where a name gives a salt, the structure may show the parent alone.
Assays:
[1] = molecular target: T1, human recombinant bradykinin B1 receptor (Homo sapiens, UniProt P46663); assay: Human recombinant bradykinin B1 receptor competitive radioligand binding; settings: hB1 expressed in CHO cells, [3H]-[Des-Arg10] Kallidin radioligand; read-out: B1 binding
T1 construct: host or cells: CHO cells, clone hB1-A5
T1 sequence (P46663 1-353): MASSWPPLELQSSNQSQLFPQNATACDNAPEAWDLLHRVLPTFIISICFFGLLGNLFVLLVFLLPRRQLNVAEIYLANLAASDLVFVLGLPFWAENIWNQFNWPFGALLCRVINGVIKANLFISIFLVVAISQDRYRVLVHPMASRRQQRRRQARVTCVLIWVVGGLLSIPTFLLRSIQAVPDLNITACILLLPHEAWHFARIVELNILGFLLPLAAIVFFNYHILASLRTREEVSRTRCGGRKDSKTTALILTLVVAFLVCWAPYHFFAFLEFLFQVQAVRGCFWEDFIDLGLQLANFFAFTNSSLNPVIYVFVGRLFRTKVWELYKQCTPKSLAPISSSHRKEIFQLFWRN
How it was run: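 Competition radioligand binding on CHO-expressed hB1 membranes, using [3,4-prolyl-3,4-^3H(N)]-[Des-Arg^10] Kallidin as tracer, 15 min at 25° C. Excess Lys-des-Arg^9-Bradykinin (10 μM) set nonspecific binding. Sigmoidal fits of at least seven concentrations gave IC50, converted to Ki via Cheng-Prusoff; KD from Scatchard.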

[2] = molecular target: T2, recombinant human B1 receptors (Homo sapiens, UniProt P46663); assay: Functional assay: antagonist potency by cytosolic calcium measurement (plate reader fluorimeter) in CHO-B1 cells, agonist LysDABK; format: cell-based; settings: CHO-B1 cells, inhibition of LysDABK (EC80)-evoked [Ca2+]i elevation; read-out: B1 func.
T2 construct: host or cells: CHO (CHO-B1)
T2 sequence (P46663 1-353): T1 sequence (P46663 1-353)
How it was run: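 IC50 is the concentration giving half-maximal inhibition of the LysDABK (EC80) calcium response, fitted from at least three experiments. CHO cells stably expressing human B1 were dye-loaded, exposed to compound for 20-25 min, then read by fluo-4 fluorescence (ΔF/F) at 37 °C.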

Row | Structure (SMILES) | Ki [1] [µM] | IC50 [2] [µM]
1 | Cn1nnc(-c2c(Cl)c3ccccc3n2-c2ccc(CNC(=O)C3(NC(=O)C(F)(F)F)CC3)c(F)c2)n1 [Example 4, 1-(2,2,2-Trifluoro-acetylamino)-cyclopropanecarboxylic acid 4-[3-chloro-2-(2-methyl-2H-tetrazol-5-yl)-indol-1-yl]-2-fluorobenzylamide] | < 0.02 | < 0.02
2 | COc1cc(C(=O)NC2(C(=O)NCc3ccc(-n4c(-c5noc(C)n5)c(F)c5cc(F)ccc54)cc3)CC2)on1 [Example 198, 3-Methoxy-isoxazole-5-carboxylic acid (1-{4-[3,5-difluoro-2-(5-methyl-[1,2,4]oxadiazol-3-yl)-indol-1-yl]-benzylcarbamoyl}-cyclopropyl)-amide] | < 0.02 | < 0.02
3 | Cc1nc(-c2c(Cl)c3cc(F)ccc3n2-c2ccc(CNC(=O)C3(NC(=O)c4cc(C5CC5)on4)CC3)cc2)no1 [Example 90, 5-Cyclopropyl-isoxazole-3-carboxylic acid (1-{4-[3-chloro-5-fluoro-2-(5-methyl-[1,2,4]oxadiazol-3-yl)-indol-1-yl]-benzylcarbamoyl}-cyclopropyl)-amide] | < 0.02 | < 0.02
4 | Cc1nc(-c2c(Cl)c3ccccc3n2-c2ccc(CNC(=O)C3(NC(=O)c4ccsc4)CC3)cc2)no1 [Example 167, Thiophene-3-carboxylic acid (1-{4-[3-chloro-2-(5-methyl-[1,2,4]oxadiazol-3-yl)-indol-1-yl]-benzylcarbamoyl}-cyclopropyl)-amide] | 0.02 to 0.1 | 0.02 to 0.1
5 | Cc1nnc(-c2c(Cl)c3ccccc3n2-c2ccc(CNC(=O)C3(NC(=O)c4cncnc4)CC3)cc2)o1 [Example 184, Pyrimidine-5-carboxylic acid (1-{4-[3-chloro-2-(5-methyl-[1,3,4]oxadiazol-2-yl)-indol-1-yl]-benzylcarbamoyl}-cyclopropyl)-amide] | < 0.02 | < 0.02
6 | Cc1nc(-c2c(Cl)c3cc(Cl)ccc3n2-c2ccc(CNC(=O)C3(NC(=O)c4cncc(C(F)(F)F)c4)CC3)cc2)no1 [Example 76, N-(1-{4-[3,5-Dichloro-2-(5-methyl-[1,2,4]oxadiazol-3-yl)-indol-1-yl]-benzylcarbamoyl}-cyclopropyl)-5-trifluoromethyl-nicotinamide] | < 0.02 | < 0.02
7 | Cc1nc(-c2c(Cl)c3ccccc3n2-c2ccc(CNC(=O)C3(NC(=O)c4cccc(N)c4)CC3)cc2)no1 [Example 186, 3-Amino-N-(1-{4-[3-chloro-2-(5-methyl-[1,2,4]oxadiazol-3-yl)-indol-1-yl]-benzylcarbamoyl}-cyclopropyl)-benzamide hydrochloride] | < 0.02 | < 0.02
8 | Cc1nc(-c2c(Cl)c3ccccc3n2-c2ccc(CNC(=O)C3(NC(=O)C4CC4C)CC3)cc2)no1 (centres unmarked) [Example 138, 2-Methyl-cyclopropanecarboxylic acid (1-{4-[3-chloro-2-(5-methyl-[1,2,4]oxadiazol-3-yl)-indol-1-yl]-benzylcarbamoyl}-cyclopropyl)-amide] | < 0.02 | 0.02 to 0.1
9 | Cc1nc(-c2cc3ccccc3n2-c2ccc(CNC(=O)C3(NC(=O)CC(F)(F)F)CC3)cc2)no1 [Example 81, 1-(3,3,3-Trifluoro-propionylamino)-cyclopropanecarboxylic acid 4-[2-(5-methyl-[1,2,4]oxadiazol-3-yl)-indol-1-yl]-benzylamide] | < 0.02 | < 0.02
10 | Cc1nc(-c2c(Cl)c3cc(Cl)ccc3n2-c2ccc(CNC(=O)C3(NC(=O)c4cccnc4Cl)CC3)cc2)no1 [Example 70, 2-Chloro-N-(1-{4-[3,5-dichloro-2-(5-methyl-[1,2,4]oxadiazol-3-yl)-indol-1-yl]-benzylcarbamoyl}-cyclopropyl)-nicotinamide] | < 0.02 | < 0.02
11 | Cc1ccc(C(=O)NC2(C(=O)NCc3ccc(-n4c(-c5noc(C)n5)c(Cl)c5ccccc54)cc3)CC2)c(Cl)n1 [Example 156, 2-Chloro-N-(1-{4-[3-chloro-2-(5-methyl-[1,2,4]oxadiazol-3-yl)-indol-1-yl]-benzylcarbamoyl}-cyclopropyl)-6-methyl-nicotinamide] | < 0.02 | < 0.02
12 | Cc1nc(-c2c(Cl)c3ccccc3n2-c2ccc(CNC(=O)C3(NC(=O)c4cn[nH]c4)CC3)cc2)no1 [Example 141, 1H-Pyrazole-4-carboxylic acid (1-{4-[3-chloro-2-(5-methyl-[1,2,4]oxadiazol-3-yl)-indol-1-yl]-benzylcarbamoyl}-cyclopropyl)-amide] | < 0.02 | < 0.02
13 | Cn1nnc(-c2c(Cl)c3cc(Cl)ccc3n2-c2ccc(CNC(=O)C3(NC(=O)C(F)(F)F)CC3)cc2)n1 [Example 17, 1-(2,2,2-Trifluoro-acetylamino)-cyclopropanecarboxylic acid 4-[3,5-dichloro-2-(2-methyl-2H-tetrazol-5-yl)-indol-1-yl]-benzylamide] | < 0.02 | < 0.02
14 | Cc1nc(-c2c(Cl)c3ccccc3n2-c2ccc(CNC(=O)C3(NC(=O)c4cccc(C#N)c4)CC3)cc2)no1 [Example 146, N-(1-{4-[3-Chloro-2-(5-methyl-[1,2,4]oxadiazol-3-yl)-indol-1-yl]-benzylcarbamoyl}-cyclopropyl)-3-cyano-benzamide] | < 0.02 | < 0.02
15 | COc1ccc2c(c1)cc(-c1nc(C)no1)n2-c1ccc(CNC(=O)C2(NC(=O)c3cccnc3F)CC2)cc1 [Example 116, 2-Fluoro-N-(1-{4-[5-methoxy-2-(3-methyl-[1,2,4]oxadiazol-5-yl)-indol-1-yl]-benzylcarbamoyl}-cyclopropyl)-nicotinamide] | 0.02 to 0.1 | 0.02 to 0.1
16 | COc1cccc(C(=O)NC2(C(=O)NCc3ccc(-n4c(-c5noc(C)n5)c(Cl)c5ccccc54)cc3)CC2)c1 [Example 175, N-(1-{4-[3-Chloro-2-(5-methyl-[1,2,4]oxadiazol-3-yl)-indol-1-yl]-benzylcarbamoyl}-cyclopropyl)-3-methoxy-benzamide] | < 0.02 | 0.02 to 0.1
17 | Cc1nc(-c2c(Cl)c3cc(F)ccc3n2-c2ccc(CNC(=O)C3(NC(=O)c4cncc(C(F)(F)F)c4)CC3)cc2)no1 [Example 91, N-(1-{4-[3-Chloro-5-fluoro-2-(5-methyl-[1,2,4]oxadiazol-3-yl)-indol-1-yl]-benzylcarbamoyl}-cyclopropyl)-5-trifluoromethyl-nicotinamide] | < 0.02 | < 0.02
18 | Cc1nc(-c2c(Cl)c3ccccc3n2-c2ccc(CNC(=O)C3(NC(=O)C4CCCC4)CC3)cc2)no1 [Example 144, Cyclopentanecarboxylic acid (1-{4-[3-chloro-2-(5-methyl-[1,2,4]oxadiazol-3-yl)-indol-1-yl]-benzylcarbamoyl}-cyclopropyl)-amide] | 0.02 to 0.1 | 0.02 to 0.1
19 | COc1ccc2c(c1)cc(-c1nnc(C)o1)n2-c1ccc(CNC(=O)C2(NC(=O)CC(F)(F)F)CC2)cc1 [Example 124, 1-(3,3,3-Trifluoro-propionylamino)-cyclopropanecarboxylic acid 4-[5-methoxy-2-(5-methyl-[1,3,4]oxadiazol-2-yl)-indol-1-yl]-benzylamide] | 0.02 to 0.1 | 0.02 to 0.1

Reference: patent US20130217702A1 (Richter Gedeon Nyrt., priority 2010, published 2013)
